Results published in patent US9758527B2, “Cyclohexene derivative, preparation method therefor, and pharmaceutical composition for preventing or treating metabolic diseases, containing same as active ingredient” (HYUNDAI PHARM CO., LTD., priority 2014, dated 2017).
pEC50: −log10 of the molar value. Like-named read-outs stand apart in the source and are kept apart here.

Target: T1, G protein-coupled receptor 119 (GPR-119) (Mesocricetus auratus, UniProt A0A1U8CD06)
T1 construct: hamster-derived β-cells containing G protein-coupled receptor 119 (GPR-119), HIT-T15 cells; host or cells: HIT-T15 (hamster pancreatic β-cells)
T1 sequence (A0A1U8CD06 1-334): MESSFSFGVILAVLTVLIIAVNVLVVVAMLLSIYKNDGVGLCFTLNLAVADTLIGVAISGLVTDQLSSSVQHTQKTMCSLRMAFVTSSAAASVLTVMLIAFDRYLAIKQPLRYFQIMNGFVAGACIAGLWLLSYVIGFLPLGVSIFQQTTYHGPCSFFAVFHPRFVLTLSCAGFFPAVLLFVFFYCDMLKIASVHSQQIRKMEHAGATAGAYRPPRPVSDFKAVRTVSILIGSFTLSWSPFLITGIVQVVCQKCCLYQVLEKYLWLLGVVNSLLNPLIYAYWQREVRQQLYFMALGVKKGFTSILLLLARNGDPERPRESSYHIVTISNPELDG
Assay: Evaluation of cAMP activity in HIT-T15 cells (HTRF cAMP dynamic kit)
Format: cell-based, hamster
Settings: cAMP activation; for EC50: EC50 (nM)
Outline: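 HIT-T15 cells, 60,000/well, treated next day with compound at six concentrations ([…]) for 1 h at 37° C. Lysate cAMP quantified by HTRF competitive immunoassay (D2-cAMP, cryptate anti-cAMP); activity taken as change in FRET signal relative to DMSO.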

[1] = 1 h at 37° C., six concentrations, read-out: EC50
[2] = 1 h at 37° C., six concentrations

## CCc1cnc(N2CCC(COc3ccc(C4=CCC(C(=O)N5CCC6(C=Cc7ccccc76)CC5)CC4)cc3)CC2)nc1 (stereo not shown) [Example 228, (4-(4-((1-(5-ethylpyrimidin-2-yl)piperidin-4-yl)methoxy)phenyl)cyclohex-3-enyl)(spiro[indene-1,4′-piperidin]-1′-yl)methanone]
[1]
  pEC50: 8.10
read-out: EC50 value
  pEC50: ≥ 7.30

## CCc1cnc(N2CCC(COc3ccc(C4=CCC(C(=O)N5CCC6(CC5)OCCO6)CC4)cc3)CC2)nc1 (stereo not shown) [Example 229, (4-(4-((1-(5-ethylpyrimidin-2-yl)piperidin-4-yl)methoxy)phenyl)cyclohex-3-enyl)(1,4-dioxa-8-azaspiro[4.5]decan-8-yl)methanone]
[2]
  EC50: 11 nM
EC50 value
  pEC50: ≥ 7.30

## CCc1cnc(N2CCC(COc3ccc(C4=CCC(C(=O)N5CC=CC5)CC4)cc3)CC2)nc1 (stereo not shown) [Example 235, (2,5-dihydro-1H-pyrrol-1-yl)(4-(4-((1-(5-ethylpyrimidin-2-yl)piperidin-4-yl)methoxy)phenyl)cyclohex-3-enyl)methanone]
[1]
  pEC50: 7.62

## CN(CCO)C(=O)C1CC=C(c2ccc(OCC3CCN(C(=O)OC(C)(C)C)CC3)cc2)CC1 (stereo not shown) [Example 236, tert-butyl 4-((4-(4-((2-hydroxyethyl)(methyl)carbamoyl)cyclohex-1-enyl)phenoxy)methyl)piperidine-1-carboxylate]
[1]
  pEC50: 7.85
read-out: EC50 value
  pEC50: ≥ 7.30

## CC(C)(C)OC(=O)N1CCC(COc2ccc(C3=CCC(C(=O)N4CCc5ccccc5C4)CC3)cc2)CC1 (stereo not shown) [Example 239, tert-butyl 4-((4-(4-(1,2,3,4-tetrahydroisoquinoline-2-carbonyl)cyclohex-1-enyl)phenoxy)methyl)piperidine-1-carboxylate]
[1]
  pEC50: 7.66

## CCc1cnc(N2CCC(COc3ccc(C4=CCC(C(=O)N(C)CCCO)CC4)cc3)CC2)nc1 (stereo not shown) [Example 242, 4-(4-((1-(5-ethylpyrimidin-2-yl)piperidin-4-yl)methoxy)phenyl)-N-(3-hydroxypropyl)-N-methylcyclohex-3-enecarboxamide]
[1]
  pEC50: 7.68
read-out: EC50 value
  pEC50: ≥ 7.30

## CC(C)c1noc(N2CCC(COc3ccc(C4=CCC(C(=O)N(C)CCCO)CC4)cc3)CC2)n1 (stereo not shown) [Example 243, N-(3-hydroxypropyl)-4-(4-((1-(3-isopropyl-1,2,4-oxadiazol-5-yl)piperidin-4-yl)methoxy)phenyl)-N-methylcyclohex-3-enecarboxamide]
[1]
  pEC50: 7.52
read-out: EC50 value
  pEC50: ≥ 7.30

## CON(C)C(=O)C1CC=C(c2ccc(OCC3CCN(c4nc(C(C)C)no4)CC3)cc2)CC1 (stereo not shown) [Example 247, 4-(4-((1-(3-isopropyl-1,2,4-oxadiazol-5-yl)piperidin-4-yl)methoxy)phenyl)-N-methoxy-N-methylcyclohex-3-enecarboxamide]
[1]
  pEC50: 7.80
read-out: EC50 value
  pEC50: ≥ 7.30

## CCc1cnc(N2CCC(COc3ccc(C4=CCC(C(=O)N5CCC(=O)C5)CC4)cc3)CC2)nc1 (stereo not shown) [Example 250, 1-(4-(4-((1-(5-ethylpyrimidin-2-yl)piperidin-4-yl)methoxy)phenyl)cyclohex-3-enecarbonyl)pyrrolidin-3-one]
[1]
  pEC50: 7.92
read-out: EC50 value
  pEC50: ≥ 7.30

## CCc1cnc(N2CCC(COc3ccc(C4=CCC(C(=O)N5C/C(=N\OC)C(CO)(CO)C5)CC4)cc3)CC2)nc1 (stereo not shown) [Example 253, (Z)-(3,3-bis(hydroxymethyl)-4-(methoxyimino)pyrrolidin-1-yl)(4-(4-((1-(5-ethylpyrimidin-2-yl)piperidin-4-yl)methoxy)phenyl)cyclohex-3-enyl)methanone]
[1]
  pEC50: 8.05

## CCc1cnc(N2CCC(COc3ccc(C4=CCC(C(=O)N5C/C(=N\OC)C6(CN(C(=O)OC(C)(C)C)C6)C5)CC4)cc3)CC2)nc1 (stereo not shown) [Example 254, (Z)-tert-butyl 6-(4-(4-((1-(5-ethylpyrimidin-2-yl)piperidin-4-yl)methoxy)phenyl)cyclohex-3-enecarbonyl)-8-(methoxyimino)-2,6-diazaspiro[3.4]octane-2-carboxylate]
[1]
  pEC50: 8.00
read-out: EC50 value
  pEC50: ≥ 7.30

## CC(C)(C)OC(=O)N1CCC(COc2ccc(C3=CCC(C(=O)N4CCN(CC5CC5)CC4)CC3)cc2)CC1 (stereo not shown) [Example 256, tert-butyl 4-((4-(4-(4-(cyclopropylmethyl)piperazine-1-carbonyl)cyclohex-1-enyl)phenoxy)methyl)piperidine-1-carboxylate]
[1]
  pEC50: 7.49

## CC(C)(C)OC(=O)N1CCC(COc2ccc(C3=CCC(C(=O)N4CCC(F)(F)C4)CC3)cc2)CC1 (stereo not shown) [Example 257, tert-butyl 4-((4-(4-(3,3-difluoropyrrolidine-1-carbonyl)cyclohex-1-enyl)phenoxy)methyl)piperidine-1-carboxylate]
[1]
  pEC50: 8.10
read-out: EC50 value
  pEC50: ≥ 7.30

## CCc1cnc(N2CCC(COc3ccc(C4=CCC(C(=O)N5CCC(F)(F)C5)CC4)cc3)CC2)nc1 (stereo not shown) [Example 258, (3,3-difluoropyrrolidin-1-yl)(4-(4-((1-(5-ethylpyrimidin-2-yl)piperidin-4-yl)methoxy)phenyl)cyclohex-3-enyl)methanone]
[1]
  pEC50: 8.00
read-out: EC50 value
  pEC50: ≥ 7.30

## CC(C)c1noc(N2CCC(COc3ccc(C4=CCC(C(=O)N5CCC(F)(F)C5)CC4)cc3)CC2)n1 (stereo not shown) [Example 259, (3,3-difluoropyrrolidin-1-yl)(4-(4-((1-(3-isopropyl-1,2,4-oxadiazol-5-yl)piperidin-4-yl)methoxy)phenyl)cyclohex-3-enyl)methanone]
[1]
  pEC50: 8.00
read-out: EC50 value
  pEC50: ≥ 7.30

## CC(C)(C)OC(=O)N1CCC(COc2ccc(C3=CCC(C(=O)N4CCC5(CC4)OCCO5)CC3)cc2)CC1 (stereo not shown) [Example 263, tert-butyl 4-((4-(4-(1,4-dioxa-8-azaspiro[4.5]decane-8-carbonyl)cyclohex-1-enyl)phenoxy)methyl)piperidine-1-carboxylate]
[2]
  EC50: 9 nM
EC50 value
  pEC50: ≥ 7.30

## CC(C)(C)OC(=O)N1CCC(COc2ccc(C3=CCC(C(=O)N4CCC5(C=Cc6ccccc65)CC4)CC3)cc2)CC1 (stereo not shown) [Example 264, tert-butyl 4-((4-(4-(spiro[indene-1,4′-piperidin]-1′-ylcarbonyl)cyclohex-1-enyl)phenoxy)methyl)piperidine-1-carboxylate]
[1]
  pEC50: 7.74

## CC(C)(C)OC(=O)N1CCC(COc2ccc(C3=CCC(C(=O)N4CCC(=O)C4)CC3)cc2)CC1 (stereo not shown) [Example 265, tert-butyl 4-((4-(4-(3-oxopyrrolidine-1-carbonyl)cyclohex-1-enyl)phenoxy)methyl)piperidine-1-carboxylate]
[1]
  pEC50: 7.49
read-out: EC50 value
  pEC50: ≥ 7.30

## CC(C)c1noc(N2CCC(COc3ccc(C4=CCC(C(=O)N5CCC(C#N)CC5)CC4)cc3)CC2)n1 (stereo not shown) [Example 266, 1-(4-(4-((1-(3-isopropyl-1,2,4-oxadiazol-5-yl)piperidin-4-yl)methoxy)phenyl)cyclohex-3-enecarbonyl)piperidine-4-carbonitrile]
[1]
  pEC50: 7.92
read-out: EC50 value
  pEC50: ≥ 7.30

## CC(C)c1noc(N2CCC(COc3ccc(C4=CCC(C(=O)N5CCC6(CC5)OCCO6)CC4)cc3)CC2)n1 (stereo not shown) [Example 267, (4-(4-((1-(3-isopropyl-1,2,4-oxadiazol-5-yl)piperidin-4-yl)methoxy)phenyl)cyclohex-3-enyl)(1,4-dioxa-8-azaspiro[4.5]decan-8-yl)methanone]
[2]
  EC50: 21 nM
EC50 value
  pEC50: ≥ 7.30

## CCO/N=C1/CCN(C(=O)C2CC=C(c3ccc(OCC4CCN(c5ncc(CC)cn5)CC4)cc3)CC2)C1 (stereo not shown) [Example 269, (3-(ethoxyimino)pyrrolidin-1-yl)(4-(4-((1-(5-ethylpyrimidin-2-yl)piperidin-4-yl)methoxy)phenyl)cyclohex-3-enyl)methanone]
[1]
  pEC50: 7.46
read-out: EC50 value
  pEC50: ≥ 7.30

## CON=C1CCN(C(=O)C2CC=C(c3ccc(OCC4CCN(C(=O)OC(C)(C)C)CC4)cc3)CC2)CC1 (stereo not shown) [Example 270, tert-butyl 4-((4-(4-(4-(methoxyimino)piperidine-1-carbonyl)cyclohex-1-enyl)phenoxy)methyl)piperidine-1-carboxylate]
[1]
  pEC50: 7.92

## CC(C)(C)OC(=O)N1CCC(COc2ccc(C3=CCC(C(=O)N4CCC(=NO)CC4)CC3)cc2)CC1 (stereo not shown) [Example 271, tert-butyl 4-((4-(4-(4-(hydroxyimino)piperidine-1-carbonyl)cyclohex-1-enyl)phenoxy)methyl)piperidine-1-carboxylate]
[1]
  pEC50: 7.89
read-out: EC50 value
  pEC50: ≥ 7.30

## CC(C)(C)OC(=O)N1CCC(COc2ccc(C3=CCC(C(=O)N4CCC(=O)CC4)CC3)cc2)CC1 (stereo not shown) [Example 272, tert-butyl 4-((4-(4-(4-oxopiperidine-1-carbonyl)cyclohex-1-enyl)phenoxy)methyl)piperidine-1-carboxylate]
[2]
  EC50: 33 nM
EC50 value
  pEC50: ≥ 7.30

## CO/N=C1\CCN(C(=O)C2CC=C(c3ccc(OCC4CCN(C(=O)OC(C)(C)C)CC4)cc3)CC2)C1 (stereo not shown) [Example 273, tert-butyl 4-((4-(4-(3-(methoxyimino)pyrrolidine-1-carbonyl)cyclohex-1-enyl)phenoxy)methyl)piperidine-1-carboxylate]
[1]
  pEC50: 7.96
read-out: EC50 value
  pEC50: ≥ 7.30

## CCc1cnc(N2CCC(COc3ccc(C4=CCC(C(=O)N5CCC(=O)CC5)CC4)cc3)CC2)nc1 (stereo not shown) [Example 274, 1-(4-(4-((1-(5-ethylpyrimidin-2-yl)piperidin-4-yl)methoxy)phenyl)cyclohex-3-enecarbonyl)piperidin-4-one]
[2]
  EC50: 27 nM
EC50 value
  pEC50: ≥ 7.30
